Experiment: molar heat capacity at constant pressure
Settings: 101.33 kPa, Crystal 4, Vacuum adiabatic calorimetry

O=P([O-])([O-])[O-].[Co+2].[Cs+] [cesium cobalt(II) phosphate]
Settings | molar heat capacity at constant pressure [J/K/mol]
140 K | 87.97
141.38 K | 88.3
143.49 K | 89.3
145.85 K | 90.21
148.08 K | 91.21
150 K | 91.96
150.3 K | 91.79
151.78 K | 92.54
152.91 K | 93.04
153.96 K | 93.62
155.41 K | 94.12
157.59 K | 94.87
159.03 K | 95.37
160 K | 95.78
161.93 K | 96.28
163.35 K | 96.95
164.07 K | 97.28
165.61 K | 97.86
166.94 K | 98.53
167.88 K | 98.78
170 K | 99.36
170.03 K | 99.61
172.23 K | 100.19
174.44 K | 100.85
176.64 K | 101.6
178.83 K | 102.35
180 K | 102.68
181.02 K | 103.1
183.21 K | 103.93
185.4 K | 104.51
187.59 K | 105.09
189.78 K | 105.59
190 K | 105.76
191.97 K | 106.18
194.89 K | 106.84
196.33 K | 107.26
198.51 K | 107.92
200 K | 108.59
200.68 K | 108.67
202.82 K | 109.34
204.99 K | 109.92
207.16 K | 110.5
209.32 K | 111.16
210 K | 111.25
211.49 K | 111.66
213.66 K | 112.25
215.82 K | 112.83
217.98 K | 113.49
220 K | 113.83
220.14 K | 114.07
222.3 K | 114.66
224.46 K | 115.07
226.62 K | 115.82
228.77 K | 116.15
230 K | 116.49
230.93 K | 116.65
233.08 K | 117.32
235.23 K | 117.73
237.35 K | 118.4
239.5 K | 118.98
240 K | 119.23
241.65 K | 119.56
243.79 K | 120.23
245.94 K | 120.81
248.09 K | 121.39
250 K | 121.97
250.23 K | 121.97
252.37 K | 122.72
254.5 K | 123.3
256.64 K | 123.8
258.77 K | 124.3
260 K | 124.72
260.91 K | 124.88
263.04 K | 125.38
265.17 K | 126.05
267.3 K | 126.71
269.42 K | 127.29
270 K | 127.29
271.51 K | 127.71
273.15 K | 128.04
273.63 K | 128.13
276.36 K | 128.79
278.4 K | 129.21
280 K | 129.62
280.51 K | 129.79
282.62 K | 130.29
284.72 K | 130.62
286.82 K | 131.12
288.92 K | 131.62
290 K | 131.78
291.02 K | 132.2
293.09 K | 132.62
295.18 K | 133.03
297.25 K | 133.53
298.15 K | 133.7
299.32 K | 134.03
300 K | 134.11
301 K | 134.69
301.38 K | 134.69
302.98 K | 135.36
303.43 K | 135.36
